Measurements reported in ChEMBL document CHEMBL1201862, “PubChem BioAssay data set” (2004).
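Growth conditions: 96-well plates. Treatment: test compound, 48 hours, 5 concentrations. Analysis: linear interpolation between bracketing concentrations; unreached endpoints set to highest concentration. Abbreviation: GI50, concentration required for 50% inhibition of growth.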 Activity calls are given as the source filed them. No stated cut-off is given here; in the data, active = GI50 up to about 1.1 µM and inactive = higher.

Columns and labels:
Assay in all cases: NCI anticancer screen, dose series, 48 h
A549 = tested on: A549
CAKI-1 = tested on: CAKI-1
HCC 2998 = tested on: HCC 2998
HCT-116 = tested on: HCT-116
HL-60 = tested on: HL-60
HOP-92 = tested on: HOP-92
Hs-578T = tested on: Hs-578T
IGROV-1 = tested on: IGROV-1
M14 = tested on: M14
MDA-N = tested on: MDA-N
Malme-3M = tested on: Malme-3M
NCI-H226 = tested on: NCI-H226
NCI-H23 = tested on: NCI-H23
NCI-H522 = tested on: NCI-H522
SF-539 = tested on: SF-539
SK-MEL-28 = tested on: SK-MEL-28
SK-OV-3 = tested on: SK-OV-3
SNB-19 = tested on: SNB-19
SR = tested on: SR
DLD-1 = tested on: DLD-1

Measured: GI50

Cc1ccccc1C(=O)C#Cc1cn(C2CC(O)C(CO)O2)c(=O)[nH]c1=O (configuration not stated)
inactive: A549 > 100 µM | CAKI-1 > 100 µM | HCC 2998 > 100 µM | HCT-116 > 100 µM | HL-60 > 100 µM | HOP-92 74.1 µM | Hs-578T > 100 µM | IGROV-1 > 100 µM | M14 > 100 µM | MDA-N > 100 µM | Malme-3M 18.3 µM | NCI-H226 > 100 µM | NCI-H23 > 100 µM | NCI-H522 14.7 µM | SF-539 > 100 µM | SK-MEL-28 > 100 µM | SK-OV-3 > 100 µM | SNB-19 > 100 µM | SR 27.9 µM

CC1=COC2=C(C)C(=O)C(=O)c3c(C)ccc1c32 [MANSONONE F]
inactive: A549 2.92 µM | CAKI-1 20.3 µM | HCC 2998 6.27 µM | HCT-116 2.61 µM | HL-60 2.1 µM | HOP-92 15.6 µM | Hs-578T 17.7 µM | IGROV-1 3.74 µM | M14 2.86 µM | MDA-N 1.78 µM | Malme-3M 1.69 µM | NCI-H226 14.4 µM | NCI-H23 2.84 µM | NCI-H522 2.17 µM | SF-539 3.21 µM | SK-MEL-28 14.2 µM | SK-OV-3 15.8 µM | SNB-19 4.07 µM | SR 3.45 µM

c1csc(-c2nn3c(C45CC6CC(CC(C6)C4)C5)nnc3s2)c1
inactive: A549 > 100 µM | CAKI-1 > 100 µM | HCC 2998 > 100 µM | HCT-116 > 100 µM | HL-60 > 100 µM | HOP-92 > 100 µM | Hs-578T > 100 µM | IGROV-1 > 100 µM | M14 > 100 µM | MDA-N > 100 µM | Malme-3M > 100 µM | NCI-H226 > 100 µM | NCI-H23 > 100 µM | NCI-H522 > 100 µM | SF-539 > 100 µM | SK-MEL-28 > 100 µM | SK-OV-3 > 100 µM | SNB-19 > 100 µM | SR > 100 µM

Clc1cccc(-c2sc(-c3cccs3)cc2Cc2cccs2)c1
inactive: A549 > 10 µM | CAKI-1 > 10 µM | HCC 2998 > 10 µM | HCT-116 > 10 µM | HL-60 > 10 µM | HOP-92 > 10 µM | Hs-578T > 10 µM | IGROV-1 > 10 µM | M14 > 10 µM | MDA-N > 10 µM | Malme-3M > 10 µM | NCI-H226 > 10 µM | NCI-H23 > 10 µM | NCI-H522 > 10 µM | SF-539 > 10 µM | SK-MEL-28 > 10 µM | SK-OV-3 > 10 µM | SNB-19 > 10 µM | SR > 10 µM

CCOC(=O)CNC1=NNS(=O)(=O)c2ccccc21
inactive: A549 > 100 µM | CAKI-1 > 100 µM | HCC 2998 > 100 µM | HCT-116 > 100 µM | HL-60 66.5 µM | HOP-92 > 100 µM | Hs-578T > 100 µM | IGROV-1 > 100 µM | M14 > 100 µM | MDA-N > 100 µM | Malme-3M > 100 µM | NCI-H226 > 100 µM | NCI-H23 > 100 µM | NCI-H522 > 100 µM | SF-539 > 100 µM | SK-MEL-28 > 100 µM | SK-OV-3 > 100 µM | SNB-19 > 100 µM | SR 97.1 µM

CC1CC(=O)CC[C@@H]1OCc1ccccc1 (some centres not stated)
inactive: A549 > 100 µM | CAKI-1 > 100 µM | DLD-1 > 100 µM | HCC 2998 > 100 µM | HCT-116 81.3 µM | HL-60 > 100 µM | IGROV-1 > 100 µM | M14 > 100 µM | Malme-3M > 100 µM | NCI-H23 > 100 µM | SF-539 > 100 µM | SK-OV-3 > 100 µM | SNB-19 > 100 µM

CC1OC(OC2C(O)COC(OC3C(C)OC(OC4C(OC(=O)[C@]56CCC(C)(C)C[C@@H]5C5=CCC7[C@@]8(C)C[C@H](O)[C@H](OC9OC(CO)C(O)C(O)C9O)[C@@](C)(CO)[C@@H]8CC[C@@]7(C)[C@]5(C)CC6)OCC(O)C4O)C(O)C3OC3OCC(O)(CO)C3O)C2O)C(O)C(O)C1O (some centres not stated)
inactive: A549 4.62 µM | CAKI-1 2.58 µM | HCC 2998 5.18 µM | HCT-116 13.9 µM | HL-60 8.73 µM | HOP-92 26.6 µM | Hs-578T 7.48 µM | IGROV-1 13.3 µM | M14 3.33 µM | MDA-N 12.6 µM | Malme-3M 12 µM | NCI-H226 16.9 µM | NCI-H23 9.31 µM | NCI-H522 16.1 µM | SF-539 20.8 µM | SK-MEL-28 3.29 µM | SK-OV-3 17.7 µM | SNB-19 14.7 µM | SR 13.8 µM

CO/N=C(\C)c1cccc(Nc2c3ccccc3nc3occc23)c1
inactive: A549 11.7 µM | CAKI-1 4.82 µM | HCC 2998 6.93 µM | HCT-116 8.34 µM | HL-60 3.53 µM | HOP-92 14.3 µM | Hs-578T 17 µM | IGROV-1 5.05 µM | M14 8.97 µM | MDA-N 4.35 µM | Malme-3M 13.4 µM | NCI-H226 12 µM | NCI-H23 7.45 µM | NCI-H522 3.66 µM | SF-539 9.06 µM | SK-MEL-28 5.35 µM | SK-OV-3 14.4 µM | SNB-19 17.5 µM | SR 3.33 µM

C[C@@H]1S[C@H](c2ccccc2F)N2Cc3ccccc3N=C12
inactive: A549 39.2 µM | CAKI-1 20.9 µM | HCC 2998 20 µM | HCT-116 17.1 µM | HL-60 19.3 µM | HOP-92 17.3 µM | Hs-578T 27.7 µM | IGROV-1 33.5 µM | M14 20.9 µM | MDA-N 20.7 µM | Malme-3M 19.9 µM | NCI-H226 30.1 µM | NCI-H23 31.3 µM | NCI-H522 19.2 µM | SF-539 37.9 µM | SK-MEL-28 40.7 µM | SK-OV-3 25.1 µM | SNB-19 30.6 µM | SR 15.9 µM

COC1CC(OC2C(C)OC(OC3C(C)OC(OC4C(O)CC(O[C@H]5CC[C@@]6(C)C(=CC[C@]7(O)[C@@H]6C[C@@H](OC(C)=O)[C@@]6(C)[C@]7(O)CC[C@@]6(O)C(C)=O)C5)OC4C)CC3OC)CC2OC)OC(C)C1O (some centres not stated)
inactive: A549 > 12.5 µM | CAKI-1 > 12.5 µM | HCC 2998 > 12.5 µM | HCT-116 > 12.5 µM | HL-60 > 12.5 µM | HOP-92 > 12.5 µM | Hs-578T > 12.5 µM | IGROV-1 > 12.5 µM | M14 > 12.5 µM | MDA-N > 12.5 µM | Malme-3M 8.26 µM | NCI-H226 > 12.5 µM | NCI-H23 > 12.5 µM | NCI-H522 > 12.5 µM | SF-539 > 12.5 µM | SK-OV-3 > 12.5 µM | SNB-19 > 12.5 µM | SR > 12.5 µM

CN1CCc2c1nc(-c1ccc([N+](=O)[O-])cc1)c1c2N(C)CC1
inactive: A549 > 100 µM | CAKI-1 26.4 µM | DLD-1 46.3 µM | HCC 2998 > 100 µM | HCT-116 15.9 µM | HL-60 60.1 µM | HOP-92 9.4 µM | IGROV-1 > 100 µM | M14 77.6 µM | Malme-3M > 100 µM | NCI-H23 > 100 µM | SF-539 > 100 µM | SK-OV-3 > 100 µM | SNB-19 > 100 µM
